Assay results as given in ChEMBL document CHEMBL1132748, “Synthesis and antiviral activities of N-9-oxypurine 1,3-dioxolane and 1,3-oxathiolane nucleosides” (2000).
Calls of active or inactive are those of the source. No cut-off for these calls is given here.

Experiments:
Human alphaherpesvirus 1 [1] = test: Anti-herpetic activity and cytotoxicity of compound was evaluated against HSV-1 (KOS strain) at concentration up to 100 ug/mL; inactive; format: functional, organism-based
Human alphaherpesvirus 2 [2] = test: Anti-herpetic activity and cytotoxicity of compound was evaluated against HSV-2 (186 strain) at concentration 100 ug/mL; inactive; format: functional, organism-based
[3] = system: Human immunodeficiency virus; test: Antiviral activity was assessed against HIV in MT-4 (human T-helper) cells at a concentration up to 100 ug/mL; inactive; format: functional, organism-based
Hepatitis B virus = test: Antiviral activity was assessed against HBV in hepatoma cell line 2.2.15; inactive; format: functional, organism-based; conditions: HepG2 2.2.15
Human alphaherpesvirus 1 [4] = test: Anti-herpetic activity and cytotoxicity was evaluated against HSV-1 (KOS strain) in plaque reduction assay in vero cells and Flow 2002 (human fibroblast) cell; inactive; format: functional, organism-based
[5] = system: Human immunodeficiency virus; test: Cytotoxicity of compound was assessed against HIV in MT-4 (human T-helper) cells; inactive; format: functional
Human alphaherpesvirus 2 [6] = test: Anti-herpetic activity and cytotoxicity was evaluated against HSV-2 (186 strain) in plaque reduction assay in vero cells and Flow 2002 (human fibroblast) cell; inactive; format: functional, organism-based
Human betaherpesvirus 5 = test: Anti-herpetic activity and cytotoxicity evaluated against HCMV-1 (WFI strain) in plaque reduction assay in vero cells and Flow 2002 (human fibroblast) cell; inactive; format: functional, organism-based
Homo sapiens = organism: Homo sapiens; test: Cytotoxicity was assessed against in MT-4 (human T-helper) cells at a concentration up to 100 ug/mL; inactive; format: functional, cell-based

SMILES | Activity (Human alphaherpesvirus 1 [1]) | Activity (Human alphaherpesvirus 2 [2]) | Activity [3] | Activity (Hepatitis B virus) | Activity (Human alphaherpesvirus 1 [4]) | CD50 [5] [µg/mL] | Activity (Human alphaherpesvirus 2 [6]) | Activity (Human betaherpesvirus 5) | Activity (Homo sapiens)
Nc1nc(O)c2ncn(O[C@H]3COC(CO)O3)c2n1 (stereo not given in full) | inactive | inactive | – | – | – | – | – | – | –
OCC1O[C@@H](On2cnc3c(O)ncnc32)CS1 (stereo not given in full) | – | – | inactive | inactive | inactive | 10 | inactive | inactive | –
COc1ncnc2c1ncn2O[C@@H]1COC(CO)O1 (stereo not given in full) | – | – | inactive | inactive | inactive | – | inactive | inactive | inactive
Nc1ncnc2c1ncn2O[C@@H]1COC(CO)O1 (stereo not given in full) | – | – | inactive | inactive | inactive | – | inactive | inactive | inactive
OCC1OC[C@@H](On2cnc3c(O)ncnc32)O1 (stereo not given in full) | – | – | inactive | inactive | inactive | – | inactive | inactive | inactive
Nc1ncnc2c1ncn2O[C@@H]1CSC(CO)O1 (stereo not given in full) | – | – | inactive | inactive | inactive | – | inactive | inactive | inactive
COc1ncnc2c1ncn2O[C@H]1COC(CO)O1 (stereo not given in full) | – | – | inactive | inactive | inactive | – | inactive | inactive | inactive
Nc1nc(O)c2ncn(O[C@@H]3COC(CO)O3)c2n1 (stereo not given in full) | inactive | inactive | – | – | – | – | – | – | –
OCC1OC[C@H](On2cnc3c(O)ncnc32)O1 (stereo not given in full) | – | – | inactive | inactive | inactive | – | inactive | inactive | inactive
Nc1ncnc2c1ncn2O[C@H]1COC(CO)O1 (stereo not given in full) | – | – | inactive | inactive | inactive | – | inactive | inactive | inactive
OCC1O[C@H](On2cnc3c(O)ncnc32)CS1 (stereo not given in full) | – | – | inactive | inactive | inactive | – | inactive | inactive | inactive
OCC1O[C@@H](On2cnc3c(Cl)ncnc32)CS1 (stereo not given in full) | – | – | inactive | inactive | inactive | – | inactive | inactive | inactive
Nc1ncnc2c1ncn2O[C@H]1CSC(CO)O1 (stereo not given in full) | – | – | inactive | inactive | inactive | – | inactive | inactive | inactive
OCC1OC[C@H](On2cnc3c(Cl)ncnc32)O1 (stereo not given in full) | – | – | inactive | inactive | inactive | – | inactive | inactive | inactive
COc1ncnc2c1ncn2O[C@@H]1CSC(CO)O1 (stereo not given in full) | – | – | inactive | inactive | inactive | – | inactive | inactive | inactive
OCC1O[C@H](On2cnc3c(Cl)ncnc32)CS1 (stereo not given in full) | – | – | inactive | inactive | inactive | – | inactive | inactive | inactive
COc1ncnc2c1ncn2O[C@H]1CSC(CO)O1 (stereo not given in full) | – | – | inactive | inactive | inactive | – | inactive | inactive | inactive
OCC1OC[C@@H](On2cnc3c(Cl)ncnc32)O1 (stereo not given in full) | – | – | inactive | inactive | inactive | – | inactive | inactive | inactive
